Values joined by “and” are separate entries in the source; they are usually repeats but may differ in a detail not shown here. Equal values may be shown once. Toxic doses and inconclusive results are not listed. Cut-off read from the data, not from the text of the source: active = T/C of 150% or more; inactive = T/C below 125%.
Test system: L1210 leukemia ip in BDF1 mice, survival T/C
Experiment: NCI In Vivo Anticancer Drug Screen. Data for tumor model L1210 Leukemia (intraperitoneal) in B6D2F1 (BDF1) mice
Conditions: endpoint: mean survival time, higher = longer survival
In short: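 Read-out is survival time, reported as the treated-group measurement over the vehicle-control measurement.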

[1] = dose: 100.0 mg/kg/injection, schedule: Q01DX001 (ip), vehicle: saline
[2] = dose: 200.0 mg/kg/injection, schedule: Q01DX001 (ip), vehicle: saline
[3] = dose: 400.0 mg/kg/injection, schedule: Q01DX001 (ip), vehicle: saline
[4] = dose: 100.0 mg/kg/injection, schedule: Q01DX009 (ip), vehicle: Klucel (hydroxypropylcellulose) (HPC)
[5] = dose: 200.0 mg/kg/injection, schedule: Q01DX009 (ip), vehicle: Klucel (hydroxypropylcellulose) (HPC)
[6] = dose: 100.0 mg/kg/injection, schedule: Q04DX003 (ip), vehicle: saline
[7] = dose: 200.0 mg/kg/injection, schedule: Q04DX003 (ip), vehicle: saline
[8] = dose: 400.0 mg/kg/injection, schedule: Q04DX003 (ip), vehicle: saline
[9] = dose: 100.0 mg/kg/injection, schedule: Q04DX002 (ip), vehicle: Klucel (hydroxypropylcellulose) (HPC)
[10] = dose: 200.0 mg/kg/injection, schedule: Q04DX002 (ip), vehicle: Klucel (hydroxypropylcellulose) (HPC)
[11] = dose: 400.0 mg/kg/injection, schedule: Q04DX002 (ip), vehicle: Klucel (hydroxypropylcellulose) (HPC)
[12] = dose: 400.0 mg/kg/injection, schedule: Q01DX009 (ip), vehicle: Klucel (hydroxypropylcellulose) (HPC)
[13] = dose: 100.0 mg/kg/injection, schedule: Q04DX003 (ip), vehicle: Klucel (hydroxypropylcellulose) (HPC)
[14] = dose: 200.0 mg/kg/injection, schedule: Q04DX003 (ip), vehicle: Klucel (hydroxypropylcellulose) (HPC)
[15] = dose: 400.0 mg/kg/injection, schedule: Q04DX003 (ip), vehicle: Klucel (hydroxypropylcellulose) (HPC)

Measured: T/C

CN(C)[C@@H]1C(=O)C(C(=O)NCNC(CO)(CO)CO)=C(O)[C@@]2(O)C(=O)C3=C(O)c4c(O)cccc4[C@@](C)(O)[C@H]3C[C@@H]12
inactive: dose: 1.0 mg/kg/injection, schedule: Q01DX Z (ip), vehicle: saline 100 % of control | dose: 4.0 mg/kg/injection, schedule: Q01DX Z (ip), vehicle: saline 100 % of control | dose: 14.0 mg/kg/injection, schedule: Q01DX Z (ip), vehicle: saline 108 % of control | dose: 15.0 mg/kg/injection, schedule: Q01DX Z (ip), vehicle: saline 102 % of control | dose: 25.0 mg/kg/injection, schedule: Q01DX009 (ip), vehicle: saline 104 % of control | dose: 28.0 mg/kg/injection, schedule: Q01DX Z (ip), vehicle: saline 94 % of control | dose: 50.0 mg/kg/injection, schedule: Q01DX009 (ip), vehicle: saline 97 % of control and 101 % of control | dose: 60.0 mg/kg/injection, schedule: Q01DX Z (ip), vehicle: saline 100 % of control | [1] 93 % of control and 95 % of control | dose: 100.0 mg/kg/injection, schedule: Q01DX009 (ip), vehicle: saline 98 % of control and 97 % of control | dose: 100.0 mg/kg/injection, schedule: Q04DX003 (ip), vehicle: acetone 92 % of control | dose: 112.0 mg/kg/injection, schedule: Q01DX Z (ip), vehicle: saline 93 % of control | dose: 120.0 mg/kg/injection, schedule: Q01DX Z (ip), vehicle: saline 113 % of control | [2] 108 % of control and 106 % of control | dose: 200.0 mg/kg/injection, schedule: Q04DX003 (ip), vehicle: acetone 100 % of control and 94 % of control | dose: 224.0 mg/kg/injection, schedule: Q01DX Z (ip), vehicle: saline 115 % of control | dose: 240.0 mg/kg/injection, schedule: Q01DX Z (ip), vehicle: saline 111 % of control | dose: 266.0 mg/kg/injection, schedule: Q01DX009 (ip), vehicle: saline 96 % of control | [3] 104 % of control and 92 % of control | dose: 400.0 mg/kg/injection, schedule: Q04DX003 (ip), vehicle: acetone 91 % of control and 90 % of control

O=c1[nH]cnc2nc(-c3ccc(Cl)cc3)c(-c3ccc(Cl)cc3)nc12
inactive: dose: 50.0 mg/kg/injection, schedule: Q01DX009 (ip), vehicle: Klucel (hydroxypropylcellulose) (HPC) 92 % of control | [4] 103 % of control | [5] 92 % of control

O=C1OC(O)c2cccc3cccc1c23 (stereo not drawn)
inactive: dose: 12.5 mg/kg/injection, schedule: Q01DX009 (ip), vehicle: saline with Tween-80 93 % of control and 89 % of control

O=C(Nc1cc2c(cc1Br)OCO2)C(Cl)Cl
inactive: dose: 100.0 mg/kg/injection, schedule: Q01DX009 (ip), vehicle: saline with Tween-80 95 % of control | dose: 200.0 mg/kg/injection, schedule: Q01DX009 (ip), vehicle: saline with Tween-80 120 % of control | dose: 400.0 mg/kg/injection, schedule: Q01DX009 (ip), vehicle: saline with Tween-80 92 % of control

CCCCCCSc1ccccn1
inactive: [6] 101 % of control | [7] 107 % of control | [8] 96 % of control

O=P(Cc1ccccc1)(N1CCOCC1)N1CCOCC1
inactive: [6] 100 % of control | [7] 93 % of control | [8] 104 % of control

CCNCCCCNCC
inactive: dose: 25.0 mg/kg/injection, schedule: Q01DX009 (ip), vehicle: saline with Tween-80 95 % of control | dose: 25.0 mg/kg/injection, schedule: Q04DX003 (ip), vehicle: saline with Tween-80 98 % of control | dose: 50.0 mg/kg/injection, schedule: Q01DX009 (ip), vehicle: saline with Tween-80 101 % of control | dose: 50.0 mg/kg/injection, schedule: Q04DX003 (ip), vehicle: saline with Tween-80 91 % of control | dose: 100.0 mg/kg/injection, schedule: Q04DX003 (ip), vehicle: saline with Tween-80 94 % of control and 87 % of control

CC(Oc1ccccc1)C(=O)Nc1ccc(F)cc1 (stereo not drawn)
inactive: [9] 94 % of control | [10] 97 % of control | [11] 97 % of control

CN(CCC[N+](C)(C)C)C(=O)C(c1ccccc1)c1ccccc1
inactive: [6] 100 % of control

CC(=O)Nc1ccc(C=O)s1
inactive: dose: 100.0 mg/kg/injection, schedule: Q01DX001 (ip), vehicle: carboxymethylcellulose (CMC) 97 % of control | dose: 200.0 mg/kg/injection, schedule: Q01DX001 (ip), vehicle: carboxymethylcellulose (CMC) 94 % of control | dose: 400.0 mg/kg/injection, schedule: Q01DX001 (ip), vehicle: carboxymethylcellulose (CMC) 103 % of control

c1ccc(-c2c3ccccc3c(-c3ccccc3)c3c(-c4ccccc4)c4ccccc4c(-c4ccccc4)c23)cc1
inactive: [9] 95 % of control | [10] 98 % of control | [11] 109 % of control

O=C(O)CNCc1ccc2c(c1)OCCO2
inactive: dose: 100.0 mg/kg/injection, schedule: Q01DX001 (ip), vehicle: Klucel (hydroxypropylcellulose) (HPC) 108 % of control | dose: 200.0 mg/kg/injection, schedule: Q01DX001 (ip), vehicle: Klucel (hydroxypropylcellulose) (HPC) 92 % of control | dose: 400.0 mg/kg/injection, schedule: Q01DX001 (ip), vehicle: Klucel (hydroxypropylcellulose) (HPC) 95 % of control

C/C(=N/OC(=O)N(C)C)c1cc(Cl)ccc1Cl
inactive: [1] 100 % of control | [2] 100 % of control

O=C(N/N=C/c1c(O)ccc2ccccc12)c1ccccc1
inactive: [4] 113 % of control | [5] 103 % of control | [12] 108 % of control

O=C(Nc1ccc(OCc2ccccc2)cc1)c1ccc([N+](=O)[O-])s1
inactive: dose: 400.0 mg/kg/injection, schedule: Q01DX005 (ip), vehicle: water 89 % of control

O=C(OCCCl)Oc1c(Cl)cc([N+](=O)[O-])cc1[N+](=O)[O-]
inactive: [13] 101 % of control | [14] 101 % of control | [15] 86 % of control

O=C(N/N=C/c1ccc2c(c1)OCO2)c1cccc2ccccc12
inactive: [1] 97 % of control | [2] 86 % of control | [3] 97 % of control

NC(CS)C(=O)O (stereo not drawn) (tested in a mixture with another compound)
inactive: [1] 108 % of control | [2] 92 % of control | [3] 89 % of control

CCNCC(=O)Nc1ccccc1C(=O)OCC
inactive: dose: 222.0 mg/kg/injection, schedule: Q01DX Z (ip), vehicle: saline 113 % of control | dose: 333.0 mg/kg/injection, schedule: Q01DX Z (ip), vehicle: saline 102 % of control

CCCCN(C(=O)C(F)(F)F)C(C)(C)C(SSSC(c1cccs1)C(C)(C)N(CCCC)C(=O)C(F)(F)F)c1cccs1 (stereo not drawn)
inactive: dose: 100.0 mg/kg/injection, schedule: Q01DX009 (ip), vehicle: saline sonified 94 % of control | dose: 100.0 mg/kg/injection, schedule: Q04DX003 (ip), vehicle: saline sonified 90 % of control | dose: 200.0 mg/kg/injection, schedule: Q01DX009 (ip), vehicle: saline sonified 96 % of control | dose: 200.0 mg/kg/injection, schedule: Q04DX003 (ip), vehicle: saline sonified 93 % of control | dose: 400.0 mg/kg/injection, schedule: Q04DX003 (ip), vehicle: saline sonified 90 % of control

O=C/C(=C/c1ccccc1)c1ccccc1
inactive: [4] 98 % of control | [13] 107 % of control | [5] 101 % of control | [14] 98 % of control | [12] 95 % of control | [15] 102 % of control

Cc1ccc(NC(=S)NC(Cc2ccccc2)c2ccccc2)cc1 (stereo not drawn)
inactive: [4] 97 % of control | [5] 94 % of control | [14] 93 % of control | [12] 96 % of control | [15] 102 % of control

c1ccc(CCCCc2ccccn2)cc1
inactive: [4] 105 % of control | [13] 101 % of control | [5] 105 % of control | [14] 105 % of control | [12] 97 % of control | [15] 94 % of control

CCOc1ccc(NC(=O)OCCCl)cc1
inactive: dose: 75.0 mg/kg/injection, schedule: Q04DX002 (ip), vehicle: Klucel (hydroxypropylcellulose) (HPC) 105 % of control | dose: 150.0 mg/kg/injection, schedule: Q04DX002 (ip), vehicle: Klucel (hydroxypropylcellulose) (HPC) 105 % of control | dose: 300.0 mg/kg/injection, schedule: Q04DX002 (ip), vehicle: Klucel (hydroxypropylcellulose) (HPC) 101 % of control

Source: PubChem BioAssay AID248 (DTP/NCI, 2004)
